Like-named read-outs stand apart in the source and are kept apart here.
What was measured:
[1] = tested on: mitochondrial genome and DHFR gene of IMR-32 cells; assay: Gene-specific Southern hybridisation assay of DNA adducts / virtual crosslinks; format: cell-based, human; details: for level of DNA adducts (percentage of double stranded DNA): IMR-32, Adriamycin alone, or Adriamycin with 25-fold excess of AN-9 (added 2 hr after or 2 hr before)
Experimental: We sought to investigate the level of DNA adducts formed under various treatment conditions, since we speculated that the peculiar effectiveness of the Adriamycin/AN-9 combination might be due to increased levels of DNA damage in the form of DNA adducts. IMR-32 human neuroblastoma cells (A and B) and MCF-7 human breast adenocarcinoma cells (C and D) were treated with Adriamycin for 2 hr ([…] as shown) followed by a further 2 hr incubation with a 25-fold excess of AN-9 (▪), or treated with AN-9 for 2 hr followed by a further 4 hr incubation with Adriamycin (□). Genomic DNA was isolated using mild conditions (Cutts et al., 2001) and subjected to gene-specific Southern hybridisation analysis. For detection of the mitochondrial genome, DNA was restriction digested with BamHI, and unreacted or intercalated drug was removed by phenol/chloroform extraction and ethanol precipitation. Samples were resuspended in 60% formamide and heat denatured at 60° C. for 5 min. Samples were resolved electrophoretically through 0.8% agarose, transferred to nylon membranes and probed with mitochondrial RNA. The percentage of double stranded DNA was calculated by phosphorimage analysis; this correlates with adduct formation in the mitochondrial genome (A and C), since the adducts behave functionally as virtual interstrand crosslinks (Zeman et al., 1998; Cullinane et al., 2000). For detection of the DHFR gene, DNA was digested with HindIII and processed as described above; however, randomly primed DHFR DNA was used as the probe for Southern analysis (B and D). Data were derived from each of two separate blots of two biological experiments, and the values are represented as the mean±SE. […] This provides a biochemical basis for the synergistic/antagonistic cytotoxicity relationship.
It was known that the formation of Adriamycin adducts was highly time-dependent. To confirm that the adducts behave as classical Adriamycin adducts, and also to investigate the optimal conditions for adduct formation, a time course study was initiated. IMR-32 cells were treated with a combination of 4 μM Adriamycin and 100 μM AN-9 for 0-8 hr as described above. Phosphorimage analysis was used to quantitate the time-dependent formation of adducts in the mitochondrial genome (A) and DHFR gene (B).
In order to gain some understanding as to why synergy was greatest when AN-9 was added at the same time as, or after, Adriamycin, a time course of addition of AN-9 was studied. IMR-32 cells were exposed to 4 μM Adriamycin for 4 hr. […] Adduct/crosslinking levels are shown in FIG. 3 for both mitochondrial (A) and nuclear (B) DNA, using probes for mtDNA and the DHFR gene respectively. Phosphorimage analysis was used to quantitate the fraction of DS DNA, a measure of adduct formation, for each treatment condition. Adduct formation fluctuated greatly, and depended on a relatively small time frame within which AN-9 was added to cells. […] This enabled us to predict that if AN-9 was added shortly after Adriamycin in cytotoxicity assays, within say approximately 2 hr, then the Combination Index obtained would be even better than when the drugs were added simultaneously.
IMR-32 cells were exposed to Adriamycin (6 μm) for 4 hr, and AN-9 (125 μM) was added at varying times from 24 hr prior to Adriamycin addition (−24) to 2 hr after Adriamycin. Genomic DNA was extracted from cells and then processed for Southern analysis. Phosphorimage analysis was used for quantitation of the adducts in mtDNA (A) and the DHFR gene (B), and the results are shown in FIG. 4.

[2] = tested on: mitochondrial genome and DHFR gene of MCF-7 cells; assay: as above; format: cell-based, human; details: Adriamycin alone, or Adriamycin with 25-fold excess of AN-9 (added 2 hr after or 2 hr before)
Experimental: We sought to investigate the level of DNA adducts formed under various treatment conditions, since we speculated that the peculiar effectiveness of the Adriamycin/AN-9 combination might be due to increased levels of DNA damage in the form of DNA adducts. IMR-32 human neuroblastoma cells (A and B) and MCF-7 human breast adenocarcinoma cells (C and D) were treated with Adriamycin for 2 hr ([…] as shown) followed by a further 2 hr incubation with a 25-fold excess of AN-9 (▪), or treated with AN-9 for 2 hr followed by a further 4 hr incubation with Adriamycin (□). Genomic DNA was isolated using mild conditions (Cutts et al., 2001) and subjected to gene-specific Southern hybridisation analysis. For detection of the mitochondrial genome, DNA was restriction digested with BamHI, and unreacted or intercalated drug was removed by phenol/chloroform extraction and ethanol precipitation. Samples were resuspended in 60% formamide and heat denatured at 60° C. for 5 min. Samples were resolved electrophoretically through 0.8% agarose, transferred to nylon membranes and probed with mitochondrial RNA. The percentage of double stranded DNA was calculated by phosphorimage analysis; this correlates with adduct formation in the mitochondrial genome (A and C), since the adducts behave functionally as virtual interstrand crosslinks (Zeman et al., 1998; Cullinane et al., 2000). […]

HL-60 cells = details: cited from earlier work
[3] = tested on: genomic DNA of IMR-32 cells; details: for adduct levels compared to Adriamycin alone / relative effectiveness in activating adduct formation: 4 μM [14C] Adriamycin simultaneously with 100 μM aldehyde-releasing compound
Experimental: IMR-32 cells were seeded into 3.5 cm petri dishes at a density of 7.5×10^5 cells/dish 24 hr prior to exposure to 41M [^14C]-Adriamycin for 4 hr. In other treatments 100 μM AN-9 was added at varying times: 2 hr prior to Adriamycin addition (−2); simultaneously (O); and 2 hr after Adriamycin (2). Cells were harvested, and the genomic DNA was isolated. Samples were then extracted twice with phenol and once with chloroform, and DNA was selectively precipitated from RNA by ammonium acetate precipitation. DNA pellets were resuspended in 100 μL TE buffer, and the concentration determined spectrophotometically at 260 nm. Aliquots of the genomic DNA (50 μL) were each added to 1 mL of Optiphase Hisafe scintillation cocktail, and the incorporation of [^14C]-labelled drug into the DNA was monitored using a Wallac 1410 Liquid Scintillation Counter.
IMR-32 cells were exposed to 6 μM [^14C]-Adriamycin alone (Adr) for 4 hr, or together with 125 μl AN-9 at varying times: 16 hr prior (−16), 2 hr prior (−2), simultaneously (0), and 2 hr after Adriamycin addition (2). […] Genomic DNA was extracted from the cells, and incorporation of radiolabelled drug was determined by scintillation counting to determine the level of [^14C] adducts per 10 kb.
Therefore, IMR-32 cells were treated with 4 μM [^14C] Adriamycin and were simultaneously treated with 100 μM of selected aldehyde-releasing compound. Cells were harvested, genomic DNA was extracted and scintillation analyses were performed as described above.
To test whether a greater fraction of Adriamycin can be utilized for adduct formation when the amount of available formaldehyde is increased, the concentration dependence of AN-9 was investigated. IMR-32 cells were treated with [^14C] Adriamycin at a constant concentration of 4 μM. AN-9 was added 2 hr after Adriamycin at concentrations ranging from 4 μM (1:1) to 500 μM (1:125), and the treatment continued for a further 2 hr. Cells were harvested, DNA was extracted and samples were analysed for incorporation of [^14C].
Adducts (lesions/10 kb) were determined by incubating IMR-32 cells in the presence of 2 μM [^14C]Adriamycin for 2 hr. followed by an additional 2 hr in the presence or absence of 100 μM AN-9. Semi-carbazide addition was at the same time as Adriamycin (ie 2 hr before AN-9). However, values in parentheses indicate that semi-carbazide addition was at the same time as AN-9 treatment (ie 2 hr after Adriamycin).
Adriamycin for 4 hr. These were simultaneously incubated with the indicated aldehyde-releasing compound at a final concentration of 100 μM. Samples were harvested as indicated previously and DNA was assessed for incorporation of radioactively labelled Adriamycin.

IMR-32 cells = assay: Cell viability assay, relative survival with semi-carbazide; format: cell-based, human; details: IC50 relative to Adriamycin alone; 72 hr; presence or absence of 50 μM AN-9; no semi-carbazide
Experimental: To obtain data representing relative survival, cells were seeded at a density of 1×10^4 per well and exposed to increasing concentrations of Adriamycin in the presence or absence of 50 μM AN-9 and/or semi-carbazide (0.25, 0.5 or 1.0 mM as indicated) for 72 hr. IC50 values for various combinations are shown as relative survival compared to Adriamycin alone. […] Overall, the critical role of formaldehyde was confirmed by reversal of formaldehyde-mediated effects by semi-carbazide, which reduced adduct formation and also abolished the cytotoxicity resulting from the interaction of AN-9 with Adriamycin.

DNA = details: cited from earlier work
[4] = 4 μM [14C] Adriamycin, 500 μM AN-9 (1:125) added 2 hr after
[5] = 6 μM [14C]-Adriamycin 4 hr, AN-9 16 hr prior to Adriamycin

CCCC(=O)OCOC(=O)C(C)(C)C [AN-9, Pivaloyloxymethyl Butyrate]
adduct/crosslinking levels ([1]; 4 μM Adriamycin 4 hr, 100 μM AN-9 added shortly after Adriamycin, compared with simultaneous addition): greatly enhanced levels of adducts | enhancement of adduct levels ([1]; Adriamycin (6 μm) 4 hr, AN-9 (125 μM) administered 5-24 hr prior to Adriamycin): no enhancement of adduct levels | level of DNA adducts (percentage of double stranded DNA) [1]: dramatic increases in the level of DNA adducts | effect on the ability of barminomycin to induce DNA crosslinks ([1]; barminomycin 0-20 nM, 12,500-fold excess of AN-9, added after or 2 hr before barminomycin): no effect | level of DNA adducts (percentage of double stranded DNA) [2]: dramatic increases in the level of DNA adducts | histone acetylation (HL-60 cells): induce histone acetylation | time after exposure at which basal level of acetylation is re-established (HL-60 cells): 6 h | adduct levels compared to Adriamycin alone [3]: enhanced adduct levels | relative effectiveness in activating adduct formation [3]: most effective | total Adriamycin added to cells incorporated into DNA adducts ([3]; 4 μM [14C] Adriamycin, 500 μM AN-9): approximately 5% | adduct levels relative to the 1:20-1:25 ratio [3, 4]: approximately 10 fold | potentiation of Adriamycin adduct levels [3, 4]: approximately 100 fold | Adriamycin adducts ([3]; 4 μM [14C] Adriamycin, AN-9 added 2 hr after, further 2 hr, Adriamycin:AN-9 1:20-1:25): 10 adducts per 10 kb | enhancement of adduct formation ([3]; 4 μM [14C] Adriamycin, AN-9 added 2 hr after, Adriamycin:AN9 1:1-1:5): poor | levels of Adriamycin adducts [3, 5]: 1.7 /10 kb | loss of adducts compared to Adriamycin alone [3, 5]: 40% | enhancement of adducts compared to Adriamycin alone ([3]; 6 μM [14C]-Adriamycin 4 hr, AN-9 added 2 hr after Adriamycin): approximately 20 fold | level of Adriamycin adducts ([3]; 41M [14C]-Adriamycin 4 hr, 100 μM AN-9 2 hr after Adriamycin): ~24 per 10 kb | level of Adriamycin adducts ([3]; 41M [14C]-Adriamycin 4 hr, 100 μM AN-9 2 hr prior to Adriamycin): ~3.5 per 10 kb | potentiation of the level of Adriamycin adducts ([3]; 41M [14C]-Adriamycin 4 hr, 100 μM AN-9, vs Adriamycin alone): up to 15 fold | level of Adriamycin adducts ([3]; 41M [14C]-Adriamycin 4 hr, 100 μM AN-9 simultaneously): approximately 12 per 10 kb

CCCC(=O)OC(C)OP(=O)(OCC)OCC (stereo not drawn) [AN-88, 1-Butyroyloxyethyldiethyl Phosphate]
adduct levels compared to Adriamycin alone [3]: reinforced the concept that it was the released formaldehyde which was solely responsible for increased adduct formation

CCCC(=O)O [Butyric acid, reference compound]
increase in Adriamycin adduct levels ([3]; 6 μM [14C]-Adriamycin 4 hr, sodium butyrate (1 mM) 16 hr prior, 2 hr prior, simultaneously or 2 hr after): no significant increases in adduct levels

CCC(=O)OC(C)OC(=O)CC [AN-188, Ethylidene Dipropionate]
adduct levels compared to Adriamycin alone [3]: reinforced the concept that it was the released formaldehyde which was solely responsible for increased adduct formation

COc1cccc2c1C(=O)c1c(O)c3c(c(O)c1C2=O)C[C@@](O)(C(=O)CO)C[C@@H]3O[C@H]1C[C@H](N)[C@H](O)[C@H](C)O1 [Adriamycin, reference compound]
Relative survival (IMR-32 cells): 1.00 ± 0.12 | level of DNA adducts (percentage of double stranded DNA) [1]: no adducts were detected | level of DNA adducts (percentage of double stranded DNA) [2]: no adducts were detected | levels of Adriamycin adducts ([3]; 6 μM [14C]-Adriamycin alone 4 hr): 2.8 /10 kb | level of Adriamycin adducts ([3]; 41M [14C]-Adriamycin 4 hr, absence of AN-9): approximately 1.5 per 10 kb | half-life of Adriamycin adducts (DNA): 5 to 40 h

C1N2CN3CN1CN(C2)C3 [hexamethylenetetramine, reference compound]
facilitation of Adriamycin adduct formation ([1]; 15 μM Adriamycin, 4 hr later 0-2.5 mM hexamethylenetetramine, harvested after 8 hr): not as effective as AN-9

CCCC(=O)OCOP(=O)(OCC)OCC [AN-7, Butyroyloxymethyldiethyl Phosphate]
adduct levels compared to Adriamycin alone [3]: enhanced adduct levels | relative effectiveness in activating adduct formation [3]: good activity

Reference: patent US20040110727A1, “Aldehyde-releasing compounds” (priority 2000, published 2004)
